Results reported in ChEMBL document CHEMBL4627386, “Bromo-spiroisoxazoline Alkaloids, Including an Isoserine Peptide, from the Caribbean Marine Sponge Aplysina lacunosa” (J Nat Prod, 2020).
Active and inactive are the calls of the source. The rule behind the calls is not given here.

target: Chymotrypsinogen A (Bos taurus) (UniProt P00766); assay: Inhibition of bovine alpha-Chymotrypsin up to 25 ug/ml using Ala-Ala-Phe-p-nitroanilide as substrate preincubated for 15 mins followed by substrate addition and measured after 1 hr by colorimetric method

inhibition | SMILES
inactive | COC1=C(Br)[C@H](O)[C@@]2(C=C1Br)CC(C(=O)NCCc1c[nH]cn1)=NO2
inactive | COC1=C(Br)[C@@H](O)[C@]2(C=C1Br)CC(C(=O)NCCCc1cnc(N)[nH]1)=NO2
inactive | COC(=O)CNC(=O)C1=NO[C@]2(C=C(Br)C(OC)=C(Br)[C@@H]2O)C1
inactive | COC(=O)C1=NO[C@]2(C=C(Br)C(OC)=C(Br)[C@@H]2O)C1

The remaining lines, values behind:

SMILES | inhibition
COc1c(Br)cc(C/C(=N\O)C(=O)NCCc2c[nH]cn2)c(O)c1Br | inactive
COC(=O)C(O)CNC(=O)C1=NO[C@]2(C=C(Br)C(OC)=C(Br)[C@@H]2O)C1 (some centres not stated) | inactive
COC1=C(Br)[C@H](O)[C@@]2(C=C1Br)CC(C(=O)NCCCOc1c(Br)cc(C/C(=N\O)C(=O)NCCc3c[nH]cn3)cc1Br)=NO2 | inactive
